Test results: publication PMC5352749, “Novel insights into biosynthesis and uptake of rhamnolipids and their precursors” (Applied Microbiology and Biotechnology, 2016)

Key:
[1] = target: T1, RhlB (Pseudomonas aeruginosa, UniProt Q9HYD1); experiment: HPLC-UV of mono-rhamnolipids formed by recombinant P. putida fed HAA; assay type: cell-based; details: HAA-containing conditioned LB medium (congener mixture, C10-C10 quantified); 30 °C, 24 h; cellular dTDP-L-rhamnose as donor
T1 construct: full-length untagged gene in pVLT33 (native RBS), expressed alone in P. putida KT2440

[2] = target: T2, RhlC (Pseudomonas aeruginosa, UniProt Q9I4K5); experiment: HPLC-UV of di-rhamnolipids formed by recombinant P. putida fed mono-rhamnolipids; assay type: cell-based; details: mono-rhamnolipid conditioned LB medium (congener mixture, C10-C10 predominant and quantified); 30 °C, 24 h; cellular dTDP-L-rhamnose as donor
T2 construct: full-length untagged gene in pVLT33 (native RBS), expressed alone in P. putida KT2440
T2 sequence (Q9I4K5 entry or part of it): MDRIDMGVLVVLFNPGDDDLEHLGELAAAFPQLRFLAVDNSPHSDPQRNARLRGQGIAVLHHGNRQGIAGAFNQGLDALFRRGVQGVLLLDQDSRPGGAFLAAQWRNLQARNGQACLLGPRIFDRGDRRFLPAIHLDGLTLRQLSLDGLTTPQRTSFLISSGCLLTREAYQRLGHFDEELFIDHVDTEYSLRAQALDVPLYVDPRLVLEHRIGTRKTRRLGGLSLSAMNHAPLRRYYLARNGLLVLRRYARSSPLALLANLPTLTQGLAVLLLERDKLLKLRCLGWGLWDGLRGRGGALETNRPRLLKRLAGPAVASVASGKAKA

T1 sequence (Q9HYD1 entry or part of it): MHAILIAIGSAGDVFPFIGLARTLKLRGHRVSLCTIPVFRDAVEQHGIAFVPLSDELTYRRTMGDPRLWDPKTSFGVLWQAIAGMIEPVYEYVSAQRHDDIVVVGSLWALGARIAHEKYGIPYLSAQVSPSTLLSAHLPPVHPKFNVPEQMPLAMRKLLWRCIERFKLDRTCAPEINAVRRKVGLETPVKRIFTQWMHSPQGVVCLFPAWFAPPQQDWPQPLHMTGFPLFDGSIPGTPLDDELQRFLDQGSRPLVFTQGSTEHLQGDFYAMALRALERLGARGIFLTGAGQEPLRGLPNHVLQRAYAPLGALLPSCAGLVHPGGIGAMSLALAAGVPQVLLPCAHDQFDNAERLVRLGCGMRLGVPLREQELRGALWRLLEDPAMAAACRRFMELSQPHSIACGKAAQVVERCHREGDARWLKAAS

Row | Structure (SMILES) | HPLC-UV of mono-rhamnolipids formed by recombinant P. putida fed HAA [1] | HPLC-UV of di-rhamnolipids formed by recombinant P. putida fed mono-rhamnolipids [2]
1 | CCCCCCCC(O)CC(=O)OC(CCCCCCC)CC(=O)O (centres unmarked) [C10-C10 (HAA)] | HAAs synthesized by P. putida and provided in the form of the conditioned medium serve | 
2 | CCCCCCC[C@H](CC(=O)O)OC(=O)C[C@@H](CCCCCCC)O[C@@H]1O[C@@H](C)[C@H](O)[C@@H](O)[C@H]1O [Rha-C10-C10] |  | extracellularly provided mono-rhamnolipids were converted to di-rhamnolipids by RhlC in recombinant P. putida
